From the OPERA property sets (Mansouri et al. 2018) come the findings set out here.

Structures are written as SMILES.

A word on the logP: it is the decadic logarithm of the partition coefficient of the neutral form, usually between octanol and water. Compound `CCN1CC(C(O)C(CC2CCCCC2)NC(=O)C(Cc2c[nH]cn2)NC(=O)C(CC(=O)N2CC(OCOCCOC)C(OCOCCOC)C2)Cc2ccccc2)OC1=O` (stereo unspecified) came in with a logP of 1.87.
The same measure for `c1cncc(CCN2CCCC2)c1`: 1.34.
The same measure for `COC(=O)c1cnc2n(c1=O)C(C(C)C)CCC2` (stereo unspecified): 0.99; for `NS(=O)(=O)Nc1ccccc1`: 0.4; for `O=C(O)COc1ccc(O)cc1`: 0.65.
The same measure for `CCNC(=O)c1ccco1`: 0.61; for `O=C1C(=O)c2ccccc2-c2ccccc21`: 2.52; for `O=C1NC(=O)C(c2ccccc2)(c2ccccc2)N1`: 2.47.
The compound `O=C(O)Cc1ccc([N+](=O)[O-])cc1` came in with a logP of 1.39.
The same measure for `NC1=CC(=O)c2ccccc2C1=O`: 1.77; for `CNC(=O)Oc1cccc(OC(C)C)c1`: 1.96.
`O=C(O)c1ccc(CO)cc1` came in with a lipophilicity (logP) of 0.93.
With `O=C(c1ccccc1)c1ccc(O)cc1`, the logP is 3.07.
Take `CNC(=O)Oc1ccc2ccccc2c1`: the lipophilicity (logP) was 2.56.
For `OCCn1nnc2ccccc21` the value was 0.5; for `CCNCCNCC`, 0.21; for `CC(=O)Oc1ccccc1C`, 1.93.
For `CN1CCN(C2=Nc3cc(Cl)ccc3Nc3ccccc32)CC1` the value was 3.23; for `CC(C)NCC(O)c1ccc(Cl)c(Cl)c1` (stereo unspecified), 3.32.
For `O=C(O)Cc1ccccc1Nc1cc(Cl)ccc1Cl` the value was 4.94.
On to `CCCN(CCC)C1CCOc2c(O)cccc21` (stereo unspecified), for which the log partition coefficient (logP) worked out at 3.3.
As for `O=C(Nc1ccccc1)NC1CC1`, the logP is 1.65.
For `O=C(O)COc1ccccc1O` the value was 0.85.
With `Cc1ccc2cccc(O)c2n1`, the logP came out at 2.33.
For `CCC1(c2ccccc2)CCC(=O)NC1=O` (stereo unspecified) the value was 1.9.
With `O=C(Nc1ccccc1)C1CNCCN1` (stereo unspecified), the lipophilicity (logP) was determined as 0.48.
For `CC1=C(C)C(=O)C(C)=C(C)C1=O` the value was 2.23; for `COC(=O)c1ccccc1C(=O)O`, 1.13.
Turning to `CCN(N=O)C(C)C`, the logP was 0.9.
For `Cn1cccc1` the value was 1.21; for `CCc1ccccc1N`, 1.74; for `CCOC(=O)n1cc(F)c(=O)[nH]c1=O`, -0.17.
Consider `Clc1cc(Cl)c(-c2c(Cl)cc(Cl)cc2Cl)c(Cl)c1`, for which the logP was 7.55.
`CN(C)C(=O)Oc1ccccc1` yielded a logP of 1.56.
`Cc1cc(N)ncn1` had a logP of 0.19.
In turn, `[O-][n+]1ccccc1` returned a logP of -1.2.
The same measure for `O=C(O)c1c(O)cccc1O`: 2.2; for `CCCC(=O)OCC1CCC(n2cnc3c(=O)[nH]cnc32)O1` (stereo unspecified): 0.11; for `CC1=CC(=O)c2ccccc2C1=O`: 2.2.
`Oc1cc(Cl)c(Cl)c(Cl)c1` gave a logP of 4.01.
The same measure for `NCCNC(=O)c1ccccc1`: 0.06; for `O=C(O)c1cc(Br)ccc1O`: 3.23; for `CC(C)SC(C)C`: 2.84.
For `CCCCNC(=O)NO` the value was 0.32; for `CNc1c(NCCSCc2nc[nH]c2C)c(=O)c1=O`, -0.08.
The same measure for `O=C(CCn1cnc([N+](=O)[O-])n1)N1CCOCC1`: -0.74.
`COc1cnc(NS(=O)(=O)c2ccc(N)cc2)nc1` came in with a logP of 0.41.
For `CCOc1cccc(NC(C)=O)c1` the value was 1.82; for `O=Cc1ccsc1`, 1.01; for `CCCc1ccncc1`, 2.1.
The compound `O=C(O)c1cccc(O)c1` displayed a logP of 1.5.
For the compound `CN(C)C(=O)OCc1ccc(C(F)(F)F)cc1`, the logP was 3.08.
The same measure for `O=c1ccc(=O)[nH][nH]1`: -0.84.
`CC(C)C(=O)CC(=O)C(C)C` had a logP of 2.22.
The same measure for `C1=COCCC1`: 0.69; for `N#CC(C#N)=NNc1ccccc1`: 2.67; for `CC(=O)C(C)=O`: -1.34.
`NC(=O)c1ccccc1NC(=O)C(Cl)Cl` gave a logP of 1.68.
For `CCc1ccccc1C` the value was 3.53.
For `FC(F)(F)c1nc2ccc(Br)cc2[nH]1` the value was 3.57; for `NCCCCCc1cccnc1`, 1.41.
As for `O=[N+]([O-])c1ccc(OC2OC(CO)C(OC3OC(CO)C(O)C(O)C3O)C(O)C2O)cc1` (stereo unspecified), the lipophilicity (logP) was -1.39.
For `Clc1cccc(C(Cl)(Cl)Cl)n1` the value was 3.41; for `COc1cc(O)cc(OC)c1`, 1.64; for `Fc1c(F)c(F)c(F)c(F)c1F`, 2.55.
In the case of `CCCC1CCCc2ncc(C(=O)OC)c(=O)n21` (stereo unspecified), the logP stood at 1.14.
`CCN(CC)CC(O)c1ccccc1` (stereo unspecified) showed a logP of 2.02.
Consider `O=[N+]([O-])c1cc(Cl)c(O)c(Cl)c1Cl`, for which the logP is 3.93.
For `COc1ccccc1NC(C)=O` the value was 0.67; for `COc1ccccc1C(N)=O`, 0.86; for `CC[C@H](C)[C@H](NC(C)=O)C(=O)N[C@@H](C)C(=O)N[C@H](C(N)=O)C(C)C`, -0.21.
`CC(C)N(C(=O)CCl)c1ccccc1` had a logP of 2.18.
For the compound `O=C[C@H](O)[C@@H](O)[C@H](O)[C@H](O)C(=O)O`, the lipophilicity (logP) is -2.57.
For `Nc1nc(N)nc(-c2cccc(SC(F)(F)F)c2)n1` the value was 3.2; for `c1ccc2[nH]ccc2c1`, 2.14; for `CCCCCCCCCCCCOS(=O)(=O)[O-].[Na+]`, 1.6.
`NC(=O)NO`: the logP was -1.8.
`ClC1C=CC(Cl)C(Cl)C1Cl` (stereo unspecified): the lipophilicity (logP) was 3.08.
In turn, `CCCCCCOC(=O)n1cnc(CC(NC(=O)C2CCC(=O)N2)C(=O)N2CCCC2C(N)=O)c1` (stereo unspecified) gave a log partition coefficient (logP) of 0.71.
The same measure for `Clc1ccc(-c2cc(Cl)c(Cl)c(Cl)c2Cl)c(Cl)c1`: 7.44; for `Cc1ccccc1OC(=O)N(C)C`: 1.86.
For `CSc1cccc(NC(N)=O)c1` the value was 1.57; for `C=C=C`, 1.45.
The same measure for `CCc1ccc[nH]1`: 1.59; for `Cc1cc(N)nc(C)n1`: 0.39; for `O=P(c1ccccc1)(c1ccccc1)c1ccccc1`: 2.83.
`NC(=O)NCc1ccccc1` had a logP of 0.73.
Turning to `O=Cc1ccc[nH]1`, the logP is 0.64.
As for `Cc1ccc(N)c(C)c1`, the log partition coefficient (logP) was found to be 1.68.
In turn, `COc1ccc2cc(C(C)C(=O)OCC(=O)N(C)CC(N)=O)ccc2c1` (stereo unspecified) gave a log partition coefficient (logP) of 1.37.
The same measure for `Nc1ccc2nc3ccccc3cc2c1`: 2.62; for `OCc1cccc(C(F)(F)F)c1`: 2.24; for `Nc1ccn([C@@H]2C=C(CO)[C@@H](O)[C@H]2O)c(=O)n1`: -2.45.
The same measure for `CC(C)CCOC(=O)c1cc(O)c(O)c(O)c1`: 2.8.
The same measure for `CSc1nnc(C(C)(C)C)c(=O)n1N`: 1.7; for `CC(=O)c1ccccc1NCC#N`: 1.58.
Consider `CC(C)C(=O)c1ccccc1`, for which the logP came to 2.73.
`CN(C)C(=O)Nc1cccc([N+](=O)[O-])c1` returned a logP of 1.46.
For `O=[N+]([O-])c1ccc(Cl)c(Cl)c1` the value was 3.12; for `OCCN1CCN(CCC=C2c3ccccc3Sc3ccc(Cl)cc32)CC1`, 4.18.
The same measure for `CN(C)c1ccc(C#N)cc1`: 2.2; for `Cc1cc(C)c(C)c(C)c1C`: 4.56.
The same measure for `O=[N+]([O-])C=Cc1ccoc1`: 1.41.
Compound `CCOC(=O)C(=Cc1ccc(Cl)c(Cl)c1)C(C)=O` yielded a log partition coefficient (logP) of 3.92.
Compound `NC(=O)c1ccc2[nH]ccc2c1` showed a lipophilicity (logP) of 0.87.
For `O=[N+]([O-])c1nccn1CC(F)(F)CO` the value was 0.04.
As for `O=C(CN1CCCCC1)Nc1ccccc1[N+](=O)[O-]`, the lipophilicity (logP) came out at 2.75.
For `CN(C)CCN(C)C` the value was 0.3; for `CN(C)CCCc1ccco1`, 2.08.
The compound `O=C(OCCOCCO)c1ccccc1` came in with a lipophilicity (logP) of 1.16.
Turning to `O=C(Oc1ccccc1)n1cc(F)c(=O)[nH]c1=O`, the log partition coefficient (logP) worked out at 0.64.
For `O=C(O)COc1cccc(Cl)c1` the value was 2.03; for `COP(=S)(OC)Oc1cc(C)c([N+](=O)[O-])c(C)c1`, 3.89.
The same measure for `CN(C)c1cccnn1`: 0.29.
For `Clc1cc(Cl)c2c(Cl)ccc(Cl)c2c1` the value was 5.76.
Regarding `O=CNc1cccc2cccnc12`, the logP amounted to 1.8.
For `CCCOC(=O)c1ccc(N)cc1` the value was 2.43; for `CN(C)C(N(C)C)=S(I)c1cc(Cl)c(Cl)c(Cl)c1` (stereo unspecified), 0.74; for `O=C(O)c1ccc(Cl)cc1[N+](=O)[O-]`, 2.08.
For `Cc1ccc2ccccc2c1` the value was 3.86; for `CCCOC=O`, 0.83.
For the compound `CCOC(=O)OCC`, the logP was 1.21.
The same measure for `CN(C)c1ccc2cccnc2c1`: 2.71; for `Cc1n[nH]c(C(=O)N(C)Cc2ccccc2)c1[N+](=O)[O-]`: 1.65; for `O=c1c2ccccc2sc2ccccc12`: 3.99.
`CNC(=S)NCCCCc1cnc[nH]1`: the logP came to 0.39.
Consider `CON(C)C(=O)Nc1ccccc1`, for which the logP worked out at 1.29.
`CCOC(=O)NC(O)C(Cl)(Cl)Cl` (stereo unspecified) returned a log partition coefficient (logP) of 1.84.
The same measure for `CN(C)C(=O)Nc1ccc(C(=O)c2ccccc2)cc1`: 2.59.
Compound `Nc1nc(N)nc(-c2ccccc2Br)n1` showed a logP of 1.26.
The same measure for `C[C@](N)(C(=O)O)c1cccc2ccccc12`: -0.22.
The same measure for `CCCCC(=O)Nc1ccccc1`: 2.61.
For `CC1(C)Oc2c(O)cccc2C1=O`, the logP was determined as 1.87.
The same measure for `CC(C)c1cccc(C(C)C)c1NC(N)=O`: 2.26; for `c1ccc(-c2ccncc2)cc1`: 2.59; for `S=C1CCCN1`: -0.05.
The same measure for `CNC(=O)Oc1cc(C)cc(C(C)C)c1`: 3.1; for `c1ccc(-c2ccc3ccccc3n2)cc1`: 3.9; for `CI`: 1.51.
For `Nc1ccccc1F` the value was 1.26.
`CCN(C)N=Nc1ccc(C(N)=O)cc1` registered a logP of 1.69.
